Earlier results in US20070032554A1, “Treatment of stuttering and other communication disorders with norepinephrine reuptake inhibitors” (ELILILLY AND COMPANY a Corporation, priority 2003, published 2007).

Conditions: for side effects / tolerability: literature reports, treatment of stuttering; for effect on stuttering: literature reports in persons who stutter

SMILES	side effects / tolerability	effect on stuttering
Cc1cc2c(s1)Nc1ccccc1N=C2N1CCN(C)CC1 [Olanzapine]	mostly limited to slight weight gain and drowsiness	
Fc1ccc([C@@H]2CCNC[C@H]2COc2ccc3c(c2)OCO3)cc1 [Paroxetine]	a number of undesirable side effects	
CN[C@H]1CC[C@@H](c2ccc(Cl)c(Cl)c2)c2ccccc21 [Sertraline]	a number of undesirable side effects	
O=C(CCCN1CCC(O)(c2ccc(Cl)cc2)CC1)c1ccc(F)cc1 [haloperidol]	not well tolerated	reduce the symptoms of stuttering
Cc1nc2n(c(=O)c1CCN1CCC(c3noc4cc(F)ccc34)CC1)CCCC2 [risperidone]	sedation was common	may be effective
